Experimental data from the NIST ThermoML archive (doi:10.1021/acs.jced.8b01039).

Assays:
[1] = Vibrating wire viscometry
[2] = xn = mol fraction of the nth substance listed; conditions: Vibrating wire viscometry

FC(F)C(F)(F)F [pentafluoroethane]
[1]
Conditions | viscosity [mPa·s]
273.2 K, 1440 kPa, Liquid | 0.2154
273.2 K, 3260 kPa, Liquid | 0.22
273.2 K, 4880 kPa, Liquid | 0.224
273.2 K, 6650 kPa, Liquid | 0.2283
273.2 K, 8370 kPa, Liquid | 0.2323
273.2 K, 10120 kPa, Liquid | 0.2364
273.2 K, 11770 kPa, Liquid | 0.2403
273.2 K, 13330 kPa, Liquid | 0.2438
293.3 K, 1680 kPa, Liquid | 0.1739
293.3 K, 4160 kPa, Liquid | 0.1801
293.3 K, 6420 kPa, Liquid | 0.1854
293.3 K, 8490 kPa, Liquid | 0.1902
293.3 K, 10920 kPa, Liquid | 0.1952
293.3 K, 13210 kPa, Liquid | 0.2004
293.3 K, 15530 kPa, Liquid | 0.2052
293.3 K, 17700 kPa, Liquid | 0.2097
313.2 K, 1960 kPa, Liquid | 0.14
313.2 K, 3810 kPa, Liquid | 0.1447
313.2 K, 5550 kPa, Liquid | 0.1487
313.2 K, 7210 kPa, Liquid | 0.1525
313.2 K, 9450 kPa, Liquid | 0.1576
313.2 K, 11270 kPa, Liquid | 0.1616
313.2 K, 13140 kPa, Liquid | 0.1653
333.2 K, 630 kPa, Gas | 0.0116
333.2 K, 810 kPa, Gas | 0.0116
333.2 K, 1010 kPa, Gas | 0.0117
333.2 K, 1300 kPa, Gas | 0.0117

F/C=C/C(F)(F)F [trans-1,3,3,3-tetrafluoropropene] + CC(F)(F)F
[2], x2 = 0.5
Conditions | viscosity [mPa·s]
252.3 K, 1030 kPa, Liquid | 0.2653
252.3 K, 2020 kPa, Liquid | 0.2688
252.3 K, 3090 kPa, Liquid | 0.2721
273.2 K, 1070 kPa, Liquid | 0.2044
273.2 K, 2060 kPa, Liquid | 0.208
273.2 K, 3130 kPa, Liquid | 0.2113
293.2 K, 1130 kPa, Liquid | 0.1573
293.2 K, 2080 kPa, Liquid | 0.1612
293.2 K, 3090 kPa, Liquid | 0.1652
323.2 K, 970 kPa, Gas | 0.0123
346.2 K, 1080 kPa, Gas | 0.0131
346.2 K, 1910 kPa, Gas | 0.0137
363.2 K, 2120 kPa, Gas | 0.0146
363.2 K, 2720 kPa, Gas | 0.0155
383.2 K, 3040 kPa, Gas | 0.0162

F/C=C/C(F)(F)F [trans-1,3,3,3-tetrafluoropropene] + FC(F)C(F)(F)F
[2], x2 = 0.4933
Conditions | viscosity [mPa·s]
252.3 K, 2010 kPa, Liquid | 0.3181
252.3 K, 3020 kPa, Liquid | 0.3224
273.2 K, 1290 kPa, Liquid | 0.2388
273.2 K, 1990 kPa, Liquid | 0.2407
273.2 K, 3010 kPa, Liquid | 0.2451
294.2 K, 1240 kPa, Liquid | 0.1821
294.2 K, 2000 kPa, Liquid | 0.1861
294.2 K, 3010 kPa, Liquid | 0.1906
323.2 K, 960 kPa, Gas | 0.0133
343.2 K, 1060 kPa, Gas | 0.0143
343.2 K, 1770 kPa, Gas | 0.0149
363.2 K, 1960 kPa, Gas | 0.016
363.2 K, 2770 kPa, Gas | 0.0173
383.2 K, 3110 kPa, Gas | 0.0182
